We go through 18 compounds from patent US20190133128A1, “Fungicidal pyridazinones” (FMC Corporation, priority 2017, published 2019).

What all share (assay type): in vivo
The test system of test [1] is Plasmopara viticola. Description: Test B: preventive spray on grape seedlings, grape downy mildew, disease rating. The source says: General protocol for preparing test solutions for Tests AG: the test compounds were first dissolved in acetone in an amount equal to 3% of the final volume and then suspended at the desired concentration (in ppm) in acetone and purified water (50/50 mix by volume) containing the surfactant PEG400 (polyhydric alcohol esters). The resulting test suspensions were then used in Tests AG. Compounds were sprayed at a concentration of 250 ppm or other indicated rate to the point of run-off on the test plants. The test solution was sprayed to the point of run-off on grape seedlings. […] A dash (-) indicates no test results.

Test [2] has as its system Botrytis cinerea. Description: Test C: preventive spray on tomato seedlings, gray mold, visual disease rating. As to conditions: for pest or weed control at 250 ppm: Botrytis cinerea. The method, boiled down: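 Compounds predissolved in acetone (3% of final volume), then suspended in 50/50 acetone/water with PEG400 surfactant. Sprayed preventively at 250 ppm or other indicated rate to run-off on tomato seedlings before Botrytis challenge; disease rated visually.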

The test system of test [3] is Phytophthora infestans. Description: whole plant or invertebrate. As to conditions: for pest or weed control at 250 ppm: Phytophthora infestans, in Solanum lycopersicum, read-out: Test D disease control rating; for Test D disease control rating: tomato seedlings.
Test [4] deals with Zymoseptoria tritici. The experiment in a line: Test E: preventive spray on wheat seedlings, wheat leaf blotch, visual disease rating. As to conditions: for pest or weed control at 250 ppm: Zymoseptoria tritici. The method, boiled down: (§1)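 Preventive foliar spray of wheat seedlings to run-off, at 250 ppm or other indicated rate. Compounds dissolved in acetone (3% of final volume), suspended in 50/50 acetone–water with PEG400 surfactant. Disease rated visually.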

The subject of test [5] is Puccinia recondita f. sp. tritici. The experiment in a line: Test F: preventive spray on wheat seedlings, wheat leaf rust, visual disease rating. As to conditions: for pest or weed control at 250 ppm: Puccinia recondita. The method, boiled down:
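Compounds were dissolved in acetone/water (50/50) with PEG400 surfactant and sprayed to run-off on wheat seedlings, at 250 ppm unless another rate is indicated. The next day, seedlings were inoculated with a Puccinia recondita f. sp. tritici spore suspension; disease was rated visually.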

Test [6] concerns Erysiphe graminis f. sp. tritici. Description: Test G: preventive spray on wheat seedlings, wheat powdery mildew, visual disease rating. As to conditions: for pest or weed control at 250 ppm: Blumeria graminis, 192 h. The method, boiled down:
as §1

The mark [7] stands for this setting: 250 ppm, 100 = 100% disease control, 0 = no control.

Regarding `Cn1ncc(O)c(C(=O)Nc2ccc(C(F)(F)F)cc2)c1=O` [Compound 2, 2,3-Dihydro-5-hydroxy-2-methyl-3-oxo-N-[4-(trifluoromethyl)phenyl]-4-pyridazinecarboxamide], the “Test B disease control rating” value in test [1] (setting [7]) amounted to 97%. Moreover, the pest or weed control at 250 ppm in test [2] (setting [7]) turned out to be 0%; in test [3] it was 99%; in test [4] (setting [7]), 97%; in test [5] (setting [7]) it was 100%; in test [6] (setting [7]) it was 97%.

As for `Cn1ncc(O)c(C(=O)Nc2ccc(Cl)nc2)c1=O` [Compound 6], the “Test B disease control rating” value in test [1] (setting [7]) worked out at 85%. Besides, the “Test C disease control rating” value in test [2] (setting [7]) stood at 99%. For the same compound, the “Test D disease control rating” value in test [3] (setting [7]) worked out at 88%. The “Test E disease control rating” value in test [4] (setting [7]) worked out at 57%. Further, the “Test F disease control rating” value in test [5] (setting [7]) worked out at 99%. Further, the “Test G disease control rating” value in test [6] (setting [7]) is 0%.

With `Cc1nnc(NC(=O)c2c(O)cnn(C)c2=O)s1` [Compound 13], the “Test B disease control rating” value in test [1] (setting [7]) is 65%. Also, the “Test C disease control rating” value in test [2] (setting [7]) is recorded as 0%. Also, in test [3] (setting [7]), the “Test D disease control rating” value stood at 0%. The “Test E disease control rating” value in test [4] (setting [7]) is 0%. In test [5] (setting [7]), the “Test F disease control rating” value amounted to 0%. In addition, the “Test G disease control rating” value in test [6] (setting [7]) is listed as 0%.

Take `Cn1ncc(O)c(C(=O)Nc2ccc(OC(F)(F)F)cc2)c1=O` [Compound 21, 2,3-Dihydro-5-hydroxy-2-methyl-3-oxo-N-[4-(trifluoromethoxy)phenyl]-4-pyridazinecarboxamide]: the “Test B disease control rating” value in test [1] (setting [7]) turned out to be 93%. For the same compound, the pest or weed control at 250 ppm was determined as 0% in test [2] (setting [7]); 97% in test [3]; 98% in test [4] (setting [7]); 99% in test [5] (setting [7]); 98% in test [6] (setting [7]).

Consider `Cn1nc(-c2ccccc2)c(O)c(C(=O)Nc2ccccc2C(F)(F)F)c1=O` [Compound 26], for which the “Test B disease control rating” value in test [1] (setting [7]) was 49%. Also, the “Test C disease control rating” value in test [2] (setting [7]) was found to be 0%. Further, the “Test D disease control rating” value in test [3] (setting [7]) was determined as 58%. The “Test E disease control rating” value in test [4] (setting [7]) came out at 0%. In addition, in test [5] (setting [7]), the “Test F disease control rating” value is given as 68%. The “Test G disease control rating” value in test [6] (setting [7]) is recorded as 84%.

Take `Cn1ncc(O)c(C(=O)Nc2ccc(Cl)cc2Cl)c1=O` [Compound 37]: the “Test B disease control rating” value in test [1] (setting [7]) is listed as 86%. Also, the “Test C disease control rating” value in test [2] (setting [7]) worked out at 0%. Moreover, in test [3] (setting [7]), the “Test D disease control rating” value stood at 95%. In addition, in test [4] (setting [7]), the “Test E disease control rating” value was found to be 51%. In addition, the “Test F disease control rating” value in test [5] (setting [7]) came out at 94%. The “Test G disease control rating” value in test [6] (setting [7]) is given as 76%.

Consider `Cn1ncc(O)c(C(=O)Nc2ncc(Cl)cn2)c1=O` [Compound 38], for which the “Test B disease control rating” value in test [1] (setting [7]) amounted to 20%. For the same compound, the “Test C disease control rating” value in test [2] (setting [7]) is reported as 0%. Also, the “Test D disease control rating” value in test [3] (setting [7]) is reported as 0%. In addition, in test [4] (setting [7]), the “Test E disease control rating” value amounted to 0%. Further, in test [5] (setting [7]), the “Test F disease control rating” value amounted to 68%. Moreover, the “Test G disease control rating” value in test [6] (setting [7]) was 0%.

Consider `Cn1ncc(O)c(C(=O)NC2CCCCC2)c1=O` [Compound 39], for which the “Test B disease control rating” value in test [1] (setting [7]) is recorded as 70%. The “Test C disease control rating” value in test [2] (setting [7]) was 0%. Besides, the “Test D disease control rating” value in test [3] (setting [7]) worked out at 0%. Further, the “Test E disease control rating” value in test [4] (setting [7]) is listed as 0%. Moreover, in test [5] (setting [7]), the “Test F disease control rating” value worked out at 0%. In addition, the “Test G disease control rating” value in test [6] (setting [7]) amounted to 69%.

For `Cn1ncc(O)c(C(=O)Nc2ncccc2Cl)c1=O` [Compound 45], in test [1] (setting [7]), the “Test B disease control rating” value amounted to 88%. Further, in test [2] (setting [7]), the “Test C disease control rating” value is listed as 99%. The “Test D disease control rating” value in test [3] (setting [7]) is reported as 94%. Also, the “Test E disease control rating” value in test [4] (setting [7]) is 0%. Besides, the “Test F disease control rating” value in test [5] (setting [7]) stood at 98%. Further, the “Test G disease control rating” value in test [6] (setting [7]) was determined as 0%.

Consider `CC(=O)Oc1cnn(C)c(=O)c1C(=O)N(C(C)=O)c1ccc(OC(F)(F)F)cc1` [Compound 84], for which, in test [1] (280 ppm), the “Test B disease control rating” value turned out to be 99%. Besides, the “Test C disease control rating” value in test [2] (280 ppm) worked out at 0%. The “Test D disease control rating” value in test [3] (280 ppm) was found to be 100%. Besides, the “Test E disease control rating” value in test [4] (280 ppm) is 100%. Further, in test [5] (280 ppm), the “Test F disease control rating” value came to 100%. Moreover, the “Test G disease control rating” value in test [6] (280 ppm) stood at 99%.

Consider `COC(=O)N(C(=O)c1c(OC(C)=O)cnn(C)c1=O)c1ccc(OC(F)(F)F)cc1` [Compound 88], for which the “Test B disease control rating” value in test [1] (50 ppm) is listed as 91%. Moreover, in test [2] (50 ppm), the “Test C disease control rating” value is 0%. Also, the “Test D disease control rating” value in test [3] (50 ppm) is reported as 57%. For the same compound, the “Test E disease control rating” value in test [4] (50 ppm) was 32%. Moreover, in test [5] (50 ppm), the “Test F disease control rating” value is reported as 83%. Also, the “Test G disease control rating” value in test [6] (50 ppm) was found to be 89%.

Take `Cn1ncc2oc(=O)n(-c3ccc(OC(F)(F)F)cc3)c(=O)c2c1=O` [Compound 89, 6-Methyl-3-[4-(trifluoromethoxy)phenyl]-2H-pyridazino[4,5-e]-1,3-oxazine-2,4,5(3H,6H)-trione]: the “Test B disease control rating” value in test [1] (setting [7]) worked out at 99%. The pest or weed control at 250 ppm in test [2] (setting [7]) is 0%; in test [3] it was 67%; in test [4] (setting [7]) it was 97%; in test [5] (setting [7]), 99%; in test [6] (setting [7]), 61%.

For the compound `COc1ccc(NC(=O)c2c(O)cnn(C)c2=O)cc1` [Compound 92], in test [1] (setting [7]), the “Test B disease control rating” value came out at 92%. The “Test C disease control rating” value in test [2] (setting [7]) amounted to 99%. In addition, the “Test D disease control rating” value in test [3] (setting [7]) was 68%. Besides, the “Test E disease control rating” value in test [4] (setting [7]) worked out at 59%. In test [5] (setting [7]), the “Test F disease control rating” value was 89%. Besides, the “Test G disease control rating” value in test [6] (setting [7]) amounted to 35%.

As to `Cc1ccc(NC(=O)c2c(O)cnn(C)c2=O)cc1` [Compound 93], the “Test B disease control rating” value in test [1] (setting [7]) turned out to be 94%. In addition, in test [2] (setting [7]), the “Test C disease control rating” value turned out to be 15%. In addition, the “Test D disease control rating” value in test [3] (setting [7]) is reported as 93%. Besides, the “Test E disease control rating” value in test [4] (setting [7]) is recorded as 65%. In addition, the “Test F disease control rating” value in test [5] (setting [7]) was found to be 91%. Moreover, the “Test G disease control rating” value in test [6] (setting [7]) is listed as 87%.

In the case of `O=C(Nc1ccc(OC(F)(F)F)cc1)c1c(O)cnn(CC(F)(F)F)c1=O` [Compound 119], in test [1] (setting [7]), the “Test B disease control rating” value was found to be 100%. Further, the “Test C disease control rating” value in test [2] (setting [7]) came out at 0%. Moreover, the “Test D disease control rating” value in test [3] (setting [7]) is given as 87%. In test [4] (setting [7]), the “Test E disease control rating” value was found to be 73%. Besides, the “Test F disease control rating” value in test [5] (setting [7]) worked out at 97%. In test [6] (setting [7]), the “Test G disease control rating” value was determined as 99%.

In the case of `CC(C)n1ncc(O)c(C(=O)Nc2ccc(OC(F)(F)F)cc2)c1=O` [Compound 131], the “Test B disease control rating” value in test [1] (setting [7]) is 98%. The “Test C disease control rating” value in test [2] (setting [7]) worked out at 0%. Besides, the “Test D disease control rating” value in test [3] (setting [7]) turned out to be 99%. Moreover, the “Test E disease control rating” value in test [4] (setting [7]) stood at 51%. Besides, the “Test F disease control rating” value in test [5] (setting [7]) is 91%. Further, the “Test G disease control rating” value in test [6] (setting [7]) was determined as 100%.

For the compound `Cn1ncc(O)c(C(=O)Nc2c(Cl)cc(OC(F)(F)F)cc2Cl)c1=O` [Compound 133], the “Test B disease control rating” value in test [1] (setting [7]) was 100%. For the same compound, the “Test C disease control rating” value in test [2] (setting [7]) is 0%. Besides, in test [3] (setting [7]), the “Test D disease control rating” value worked out at 89%. Further, the “Test E disease control rating” value in test [4] (setting [7]) was found to be 100%. The “Test F disease control rating” value in test [5] (setting [7]) was determined as 86%. Moreover, the “Test G disease control rating” value in test [6] (setting [7]) worked out at 100%.

Take `Cn1ncc(O)c(C(=O)Nc2ccc(C(F)(F)C(F)(F)F)cc2)c1=O` [Compound 138]: in test [1] (setting [7]), the “Test B disease control rating” value worked out at 100%. Besides, the “Test C disease control rating” value in test [2] (setting [7]) is 0%. Besides, in test [3] (setting [7]), the “Test D disease control rating” value was determined as 99%. The “Test E disease control rating” value in test [4] (setting [7]) is 99%. Further, in test [5] (setting [7]), the “Test F disease control rating” value was found to be 100%. For the same compound, in test [6] (setting [7]), the “Test G disease control rating” value is 99%.
